# Assay results reported in patent US20070048371A1, “Pharmaceutical formulations/composition of guanfacine suitable for single dose form administration daily” (priority 2005, published 2007).
# Read-outs that look alike come from different tables or passages of the source.
# Columns and labels:
# [1] = Example 2: open-label dose-escalation pharmacokinetic and safety study in children and adolescents with ADHD; format: in vivo, human; conditions: for AUC(0-t) / AUC(0-inf) / Cmax / Tmax / half-life / Vd/F: both sexes, human, plasma; for Vd/F: read-out: Vz/F
# Procedure: Objective: The objective of this study was to assess the pharmacokinetics of controlled-release guanfacine after a single 2 mg dose or multiple doses of 2 mg and 4 mg from Table 2.
# Methods: An open-label, dose-escalation study in male and female children (aged 6-12 years) and adolescents (aged 13-17 years) with ADHD. Subjects weighed 25 kg (55 lb) or more but were not considered overweight in the opinion of the investigator. Their electrocardiogram readings (ECGs) were within normal ranges, and their blood pressure measurements were within the 95th percentile for their age, height, and gender. […] Informed consent was given by the patient's parent or guardian.
# […] The dose was then titrated down to 3 mg on days 30 to 32, and 2 mg on days 33 to 35. Pharmacokinetic assessments were made after the single 2 mg dose and after 6 days of repeated 2 mg and 4 mg doses.
# [2] = Example 3: Phase I single-dose crossover bioequivalence/dose proportionality study, 1 mg, 2 mg, 4 mg tablets, healthy adult volunteers; format: in vivo, human; conditions: human, in vivo; for AUC(0-t): AUC0-last
# Procedure: Objectives: The study was designed to assess the bioequivalence of guanfacine 2 mg and 4 mg tablets from table 2 and to investigate the dose proportionality of 1 mg, 2 mg, and 4 mg doses.
# Methods: This was a Phase I, randomized, open-label, single-dose, five period, four-treatment crossover design with a separate lead-in period.
# Forty-nine (49) healthy adult volunteers completed the study. During period 1, all subjects received a single 1 mg dose administered after and overnight fast. Prior to period 2, subjects were randomly assigned to one of four sequence groups, with 13 subjects per sequence. During treatment periods 2-5, subjects received their assigned treatment of 2 mg or 4 mg. All subjects were to receive two single doses of 2 mg tablets and two single doses of 4 mg tablets during the course of the study. Doses during periods 2-5 were also administered after an overnight fast.
# [3] = 28 children and adolescents with ADHD, 2-4 mg qd dose escalation
# [4] = po, 2 mg, single 2 mg oral dose, Day 1, adolescents 13-17 yrs, ADHD patients, N = 14
# [5] = po, 2 mg, single 2 mg oral dose, Day 1, children 6-12 yrs, ADHD patients, N = 14
# [6] = single 2 mg oral dose, Day 1, adolescents 13-17 yrs, ADHD patients, N = 14
# [7] = single 2 mg oral dose, Day 1, children 6-12 yrs, ADHD patients, N = 14
smiles,measurement,setting,value
N=C(N)NC(=O)Cc1c(Cl)cccc1Cl [guanfacine],"abnormalities on ECGs, hematologic parameters, or serum chemistries",[1]; [3],No clinically significant abnormalities
same,discontinuations due to adverse events,[1]; [3],no discontinuations
same,severity of most AEs,[1]; [3],mild to moderate
same,subjects with somnolence (AE possibly or probably due to treatment),[1]; [3],93%
same,subjects judged to have severe somnolence,"[1]; 28 children and adolescents with ADHD, 2-4 mg qd dose escalation, 6 subjects",21%
same,CL/F,"[1]; Day 14, 2 mg once daily oral, adolescents 13-17 yrs, ADHD patients, N = 14",826 ± 486 mL/min
same,CL/F,"[1]; Day 14, 2 mg once daily oral, children 6-12 yrs, ADHD patients, N = 14",552 ± 215 mL/min
same,CL/F,"[1]; Day 28, 4 mg once daily oral, adolescents 13-17 yrs, ADHD patients, N = 14",607 ± 166 mL/min
same,CL/F,"[1]; Day 28, 4 mg once daily oral, children 6-12 yrs, ADHD patients, N = 14",522 ± 212 mL/min
same,AUC(0-t),"[1]; oral, 2 mg, dose of 2 mg of guanfacine, fasted patients ages 6-12 suffering from ADHD, read-out: AUC0-last",~56.9 ng·h/mL
same,AUC(0-inf),"[1]; oral, 2 mg, dose of 2 mg of guanfacine, fasted patients ages 6-12 suffering from ADHD, read-out: AUC∞",~65.2 ng·h/mL
same,Cmax,"[1]; oral, 2 mg, dose of 2 mg of guanfacine, fasted patients ages 6-12 suffering from ADHD, read-out: mean Cmax",~2.55 ng/mL
same,Tmax,"[1]; oral, 2 mg, dose of 2 mg of guanfacine, fasted patients ages 6-12 suffering from ADHD, read-out: median Tmax",~5 h
same,AUC(0-t),"[1]; oral, 2 mg, dose of 2 mg of guanfacine, fasted patients ages 13-17 suffering from ADHD, read-out: AUC0-last",~42.7 ng·h/mL
same,AUC(0-inf),"[1]; oral, 2 mg, dose of 2 mg of guanfacine, fasted patients ages 13-17 suffering from ADHD, read-out: AUC∞",~47.2 ng·h/mL
same,Cmax,"[1]; oral, 2 mg, dose of 2 mg of guanfacine, fasted patients ages 13-17 suffering from ADHD, read-out: mean Cmax",~1.69 ng/mL
same,Tmax,"[1]; oral, 2 mg, dose of 2 mg of guanfacine, fasted patients ages 13-17 suffering from ADHD, read-out: median Tmax",~5 h
same,half-life,"[1]; oral, 2 mg, measured for the 2 mg formulation, fasted patients ages 6-12 suffering from ADHD",14.4 ± 2.4 h
same,half-life,"[1]; oral, 2 mg, measured for the 2 mg formulation, fasted patients ages 13-17 suffering from ADHD",17.9 ± 5.8 h
same,AUC(0-t),"[1]; po, 2 mg, Day 14, 2 mg once daily oral, adolescents 13-17 yrs, ADHD patients, N = 14, read-out: AUC0-24",48.2 ± 16.1 ng·h/mL
same,Cmax,"[1]; po, 2 mg, Day 14, 2 mg once daily oral, adolescents 13-17 yrs, ADHD patients, N = 14, read-out: Cmax",2.86 ± 0.77 ng/mL
same,Tmax,"[1]; po, 2 mg, Day 14, 2 mg once daily oral, adolescents 13-17 yrs, ADHD patients, N = 14, read-out: Tmax",4.53 h
same,AUC(0-t),"[1]; po, 2 mg, Day 14, 2 mg once daily oral, children 6-12 yrs, ADHD patients, N = 14, read-out: AUC0-24",70 ± 28.3 ng·h/mL
same,Cmax,"[1]; po, 2 mg, Day 14, 2 mg once daily oral, children 6-12 yrs, ADHD patients, N = 14, read-out: Cmax",4.39 ± 1.66 ng/mL
same,Tmax,"[1]; po, 2 mg, Day 14, 2 mg once daily oral, children 6-12 yrs, ADHD patients, N = 14, read-out: Tmax",4.98 h
same,half-life,[1]; [4],17.9 ± 5.77 h
same,AUC(0-t),"[1]; po, 2 mg, single 2 mg oral dose, Day 1, adolescents 13-17 yrs, ADHD patients, N = 14, read-out: AUC0-t",42.7 ± 12.9 ng·h/mL
same,AUC(0-inf),"[1]; po, 2 mg, single 2 mg oral dose, Day 1, adolescents 13-17 yrs, ADHD patients, N = 14, read-out: AUC0-∞",47.3 ± 13.7 ng·h/mL
same,Cmax,"[1]; po, 2 mg, single 2 mg oral dose, Day 1, adolescents 13-17 yrs, ADHD patients, N = 14, read-out: Cmax",1.69 ± 0.43 ng/mL
same,Tmax,"[1]; po, 2 mg, single 2 mg oral dose, Day 1, adolescents 13-17 yrs, ADHD patients, N = 14, read-out: Tmax",4.96 h
same,Vd/F,[1]; [4],1240 L
same,half-life,[1]; [5],14.4 ± 2.39 h
same,AUC(0-t),"[1]; po, 2 mg, single 2 mg oral dose, Day 1, children 6-12 yrs, ADHD patients, N = 14, read-out: AUC0-t",56.9 ± 22 ng·h/mL
same,AUC(0-inf),"[1]; po, 2 mg, single 2 mg oral dose, Day 1, children 6-12 yrs, ADHD patients, N = 14, read-out: AUC0-∞",65.2 ± 23.9 ng·h/mL
same,Cmax,"[1]; po, 2 mg, single 2 mg oral dose, Day 1, children 6-12 yrs, ADHD patients, N = 14, read-out: Cmax",2.55 ± 1.03 ng/mL
same,Tmax,"[1]; po, 2 mg, single 2 mg oral dose, Day 1, children 6-12 yrs, ADHD patients, N = 14, read-out: Tmax",4.98 h
same,Vd/F,[1]; [5],766 ± 380 L
same,AUC(0-t),"[1]; po, 4 mg, Day 28, 4 mg once daily oral, adolescents 13-17 yrs, ADHD patients, N = 14, read-out: AUC0-24",117 ± 28.4 ng·h/mL
same,Cmax,"[1]; po, 4 mg, Day 28, 4 mg once daily oral, adolescents 13-17 yrs, ADHD patients, N = 14, read-out: Cmax",7.01 ± 1.53 ng/mL
same,Tmax,"[1]; po, 4 mg, Day 28, 4 mg once daily oral, adolescents 13-17 yrs, ADHD patients, N = 14, read-out: Tmax",4.97 h
same,AUC(0-t),"[1]; po, 4 mg, Day 28, 4 mg once daily oral, children 6-12 yrs, ADHD patients, N = 14, read-out: AUC0-24",162 ± 116 ng·h/mL
same,Cmax,"[1]; po, 4 mg, Day 28, 4 mg once daily oral, children 6-12 yrs, ADHD patients, N = 14, read-out: Cmax",10.1 ± 7.09 ng/mL
same,Tmax,"[1]; po, 4 mg, Day 28, 4 mg once daily oral, children 6-12 yrs, ADHD patients, N = 14, read-out: Tmax",5.02 h
same,linearity of pharmacokinetics,"[1]; single 2 mg doses and multiple 2 mg and 4 mg doses, children (6-12 years) and adolescent (13-17 years) ADHD patients",linear
same,CL/F,[1]; [6],815 ± 214 mL/min
same,λz,[1]; [6],0.0428 ± 0.0153 h⁻¹
same,CL/F,[1]; [7],612 ± 252 mL/min
same,λz,[1]; [7],0.0496 ± 0.0093 h⁻¹
same,AUC(0-t),[2]; 1 mg,~29.3 ng·h/mL
same,AUC(0-inf),"[2]; 1 mg, AUC∞",~32.4 ng·h/mL
same,Cmax,"[2]; 1 mg, mean Cmax",~0.98 ng/mL
same,Tmax,"[2]; 1 mg, median Tmax",~6 h
same,half-life,"[2]; 1 mg, t1/2",17.5 ± 3.8 h
same,AUC(0-t),[2]; 4 mg,~120 ng·h/mL
